Results as given in US12539311B2, “Short-acting heparin-based anticoagulant compounds and methods” (The University of North Carolina at Chapel Hill, priority 2017, dated 2026).
Read-outs that look alike come from different tables or passages of the source.

How the values were obtained:
antithrombin (AT) [1] = target: T1, antithrombin (AT) (Homo sapiens, UniProt P01008); conditions: reported in a previous publication, method not given, cited from earlier work
antithrombin (AT) [2] = target: T1, antithrombin (AT); assay: AT-binding affinity analysis using isothermal titration calorimetry (ITC)
antithrombin (AT) [3] = target: T1, antithrombin (AT); conditions: affinity coelectrophoresis, reported in a previous publication; read-out: Binding affinity (Kd) to AT; cited from earlier work
FXa = assay: Determination of anti-FXa effect in vivo; parameters: species or system Lewis rats; conditions: rat, intravenous; for persistence of anti-FXa effect in vivo: blood drawn 0.5-8 hours
Procedure: (§1) All studies were performed under an Institutional Animal Care and Use Committee (IACUC)-approved protocol at the University of North Carolina, following Public Health Service guidelines for laboratory animal care and use. Sixteen 400-g Lewis rats were equally divided into four groups. […] Blood was then drawn at specified time points (0.5, 1, 2, 4, 8 hours) after the compounds had been administered, with one sample taken just before administration. 0.8 mL of blood was drawn from the contralateral femoral/saphenous vein into 150 mM citrate at 0.5, 1, 2, 4 and 8 hours following injection of the compounds, with one sample drawn immediately prior to injection. The samples were centrifuged to obtain approximately 400 μL of plasma. The blood samples were subjected to FXa activity analysis. Saline was given periodically subcutaneously to maintain fluid volume.

platelet factor 4 = target: T2, platelet factor 4 (Homo sapiens, UniProt P02776); assay: Risk of heparin-induced thrombocytopenia (HIT) / binding to platelet factor 4; conditions: expected from size (smaller than 12-mers do not bind platelet factor 4)
T2 sequence (P02776 32-101): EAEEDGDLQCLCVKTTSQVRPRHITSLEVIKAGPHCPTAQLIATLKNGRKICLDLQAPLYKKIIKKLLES

[4] = Clearance of oligosaccharides from the drug-treated animals (plasma concentration against time); type: in vivo, Lewis rats
Procedure: as §1
Using a calibration curve generated for each compound, the concentration of compound in the reaction mixture was read off for each corresponding FXa activity percentage. The average plasma concentration and standard deviation between the 4 rats in each group were calculated for each time point; these values were used to plot a graph of plasma concentration against time.

T1 sequence (P01008 33-464): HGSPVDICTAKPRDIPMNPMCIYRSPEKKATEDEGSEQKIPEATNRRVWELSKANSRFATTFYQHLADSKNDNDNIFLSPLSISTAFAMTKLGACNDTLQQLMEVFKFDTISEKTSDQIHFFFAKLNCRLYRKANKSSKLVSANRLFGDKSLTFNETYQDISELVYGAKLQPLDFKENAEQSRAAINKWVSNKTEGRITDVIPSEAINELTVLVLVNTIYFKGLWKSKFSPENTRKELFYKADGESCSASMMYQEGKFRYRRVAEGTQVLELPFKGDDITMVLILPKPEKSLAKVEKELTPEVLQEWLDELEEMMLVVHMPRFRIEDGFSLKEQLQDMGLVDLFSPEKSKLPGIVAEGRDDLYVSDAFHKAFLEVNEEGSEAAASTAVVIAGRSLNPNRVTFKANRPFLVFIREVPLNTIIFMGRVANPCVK

O=C(O)C1OC(OC2C(COS(=O)(=O)O)OC(OC3C(C(=O)O)OC(OC4C(COS(=O)(=O)O)OC(OC5C(C(=O)O)OC(Oc6ccc([N+](=O)[O-])cc6)C(O)C5O)C(NS(=O)(=O)O)C4O)C(OS(=O)(=O)O)C3O)C(NS(=O)(=O)O)C2OS(=O)(=O)O)C(O)C(O)C1OC1OC(COS(=O)(=O)O)C(O)C(O)C1NS(=O)(=O)O (centres unmarked) [GlcA2S-containing 6-mer, GlcNS6S-GlcA-GlcNS3S6S-GlcA2S-GlcNS6S-GlcA-pNP]
Binding affinity (Kd) to AT (antithrombin (AT) [1]): No binding^d

O=C(O)C1OC(OC2C(CO)OC(OC3C(C(=O)O)OC(OC4C(CO)OC(OC5C(C(=O)O)OC(OC6C(CO)OC(OC7C(C(=O)O)OC(Oc8ccc([N+](=O)[O-])cc8)C(O)C7O)C(NS(=O)(=O)O)C6O)C(OS(=O)(=O)O)C5O)C(NS(=O)(=O)O)C4OS(=O)(=O)O)C(OS(=O)(=O)O)C3O)C(NS(=O)(=O)O)C2O)C(O)C(O)C1OC1OC(CO)C(O)C(O)C1NS(=O)(=O)O (centres unmarked) [Comp 4]
Binding affinity (Kd) to AT (antithrombin (AT) [2]; ITC): No binding^c

CC(=O)NC1C(OC2C(C(=O)O)OC(OC3C(COS(=O)(=O)O)OC(OC4C(C(=O)O)OC(OC5C(COS(=O)(=O)O)OC(OC6C(C(=O)O)OC(OC7C(COS(=O)(=O)O)OC(OC8C(C(=O)O)OC(Oc9ccc([N+](=O)[O-])cc9)C(O)C8O)C(NS(=O)(=O)O)C7O)C(OS(=O)(=O)O)C6O)C(NS(=O)(=O)O)C5O)C(OS(=O)(=O)O)C4O)C(NS(=O)(=O)O)C3OS(=O)(=O)O)C(O)C2O)OC(COS(=O)(=O)O)C(O)C1O (centres unmarked) [Comp 11, reference compound]
Kd (antithrombin (AT) [3]): 8 ± 3 nM | persistence of anti-FXa effect in vivo (FXa): persisted after 8 hours

O=C(O)C1OC(OC2C(COS(=O)(=O)O)OC(OC3C(C(=O)O)OC(OC4C(COS(=O)(=O)O)OC(OC5C(C(=O)O)OC(Oc6ccc([N+](=O)[O-])cc6)C(O)C5O)C(NS(=O)(=O)O)C4OS(=O)(=O)O)C(OS(=O)(=O)O)C3O)C(NS(=O)(=O)O)C2O)C(O)C(O)C1OC1OC(COS(=O)(=O)O)C(O)C(O)C1NS(=O)(=O)O (centres unmarked) [Comp 2, GlcNS6S-GlcA-GlcNS6S-IdoA2S-GlcNS3S6S-GlcA-pNP]
Binding affinity (Kd) to AT (antithrombin (AT) [2]; ITC): No binding

O=C(O)C1OC(OC2C(COS(=O)(=O)O)OC(OC3C(C(=O)O)OC(OC4C(COS(=O)(=O)O)OC(OC5C(C(=O)O)OC(OC6C(COS(=O)(=O)O)OC(OC7C(C(=O)O)OC(Oc8ccc([N+](=O)[O-])cc8)C(O)C7O)C(NS(=O)(=O)O)C6O)C(OS(=O)(=O)O)C5O)C(NS(=O)(=O)O)C4OS(=O)(=O)O)C(OS(=O)(=O)O)C3O)C(NS(=O)(=O)O)C2O)C(O)C(O)C1OC1OC(COS(=O)(=O)O)C(O)C(O)C1NS(=O)(=O)O (centres unmarked) [Comp 5]
risk of HIT (platelet factor 4): very low risk of HIT | clearance rate faster than that of fondaparinux ([4]; in a rat or mouse model): at least 50% | clearance in vivo (in words) ([4]; rat, compared with fondaparinux and compound 11): cleared faster from the animal in the first 2 hours | Kd (antithrombin (AT) [2]; ITC): 5.1 ± 1.4 nM | binding to AT (in words) (antithrombin (AT) [2]; listed as Compound 5): binds to AT | binding to AT (in words) (antithrombin (AT) [2]; listed as compound 5): binds to AT tightly | persistence of anti-FXa effect in vivo (FXa): diminished after 4 hours | anti-FXa potency in vivo (FXa; within 30 min after administration): comparable anti-FXa potency to that of fondaparinux and compound 11

O=C(O)C1OC(OC2C(COS(=O)(=O)O)OC(OC3C(C(=O)O)OC(OC4C(COS(=O)(=O)O)OC(OC5C(C(=O)O)OC(Oc6ccc([N+](=O)[O-])cc6)C(O)C5O)C(NS(=O)(=O)O)C4O)C(O)C3O)C(NS(=O)(=O)O)C2OS(=O)(=O)O)C(O)C(O)C1OC1OC(COS(=O)(=O)O)C(O)C(O)C1NS(=O)(=O)O (centres unmarked) [IdoA-containing 6-mer]
Kd (antithrombin (AT) [1]; read-out: Binding affinity (Kd) to AT): 32.6 ± 5.3 nM
